# Key:
# [1] = localization of radioactivity (composition judged unacceptable); assay type: in vivo; settings: Sm-153; species not stated
# [2] = biolocalization of the radionuclide in rats (tissue distribution after tail vein injection); assay type: in vivo, male Sprague Dawley rats; settings: for Bone/Blood / Bone/Muscle: ratio of percent dose per gram
# Experimental: Studies to determine the qualitative biodistribution of the various radionuclides were conducted by injecting the compositions into rats and obtaining the gamma ray images of the entire animal at various times up to two hours after injection.
# Laboratory rats were injected with the above complex (50-100 μl) via the tail vein. After 2 hours, the animals were sacrificed by cervical dislocation and organs and tissues removed. Samples were counted with a NaI counter to determine the biolocalization of the radionuclide.
# tumor = settings: female Irish Wolfhound, possible osteosarcoma; 0.97 mCi/kg
# Experimental: An English Setter with a tumor in his pelvis was injected with approximately 19 mCi of a composition containing Sm-153-EDTMP. After 2 hours, the dog was imaged using a scintillation camera.
# An Irish setter with undifferentiated sarcoma metastatic to bone was treated with 16 mCi (0.57 mCi/kg) of a composition containing Sm-153-EDTMP. […] After approximately 3 months, when signs of lameness began to reappear, the dog was given a second treatment of 15 mCi (0.49 mCi/kg), of a composition containing Sm-153-EDTMP.
# A female Irish Wolfhound with a possible osteosarcoma on the left distal radius was injected with a composition containing ^166 Ho-EDTMP (0.97 mCi/kg).
# [3] = Sm-153, rats, 2 hours, average of 5 rats
# [4] = Yb-175, rats, two hour, average of 5 rats
# [5] = Lu-177 (Ex. 14, 15; 5 rats) or Ho-166 (Ex. 16; 3 rats), two hour
# [6] = Gd-159, two hour, average of five rats
# [7] = Ho-166, Table X, time not stated, average of 3 rats
# [8] = Ho-166, two hours, comparative, average of 2 rats (MDP, HEDP, PYP), 1 rat (IDP, HDP)
# [9] = Sm-153, two hours, comparative, average of 5 rats (MDP, HEDP), 3 rats (PYP, IDP)
structure (smiles),measurement,setting,value
O=P(O)(O)CN(CCO)CP(=O)(O)O.[153Sm+3],localization of radioactivity in the liver,[1],a significant portion of the radioactivity localized in the liver
O=P(O)(O)CN(CCN(CP(=O)(O)O)CP(=O)(O)O)CCN(CP(=O)(O)O)CP(=O)(O)O.[153Sm+3] [Example 4],% Dose in Blood,[2]; [3],0.16 % Dose
same,% Dose in Liver,[2]; [3],0.27 % Dose
same,% Dose in Skeleton,[2]; [3],30 % Dose
same,% Dose in Urine,[2]; [3],74 % Dose
same,Bone/Blood,[2]; [3],224
same,Bone/Muscle,[2]; [3],220
O=P(O)(O)CN(CCO)CCN(CP(=O)(O)O)CP(=O)(O)O.[153Sm+3] [Example 6],% Dose in Blood,[2]; [3],0.035 % Dose
same,% Dose in Liver,[2]; [3],0.45 % Dose
same,% Dose in Skeleton,[2]; [3],57 % Dose
same,% Dose in Urine,[2]; [3],50 % Dose
same,Bone/Blood,[2]; [3],1300
same,Bone/Muscle,[2]; [3],1300
O=P(O)(O)CN(CCN(CCN(CP(=O)(O)O)CP(=O)(O)O)CCN(CP(=O)(O)O)CP(=O)(O)O)CP(=O)(O)O.[153Sm+3] [Example 8],% Dose in Blood,[2]; [3],0.25 % Dose
same,% Dose in Liver,[2]; [3],0.18 % Dose
same,% Dose in Skeleton,[2]; [3],28 % Dose
same,% Dose in Urine,[2]; [3],65 % Dose
same,Bone/Blood,[2]; [3],80
same,Bone/Muscle,[2]; [3],410
O=P(O)(O)CN(CCN(CP(=O)(O)O)CP(=O)(O)O)CP(=O)(O)O.[175Yb+3] [Example 9],% Dose in Blood,[2]; [4],0.074 % Dose
same,% Dose in Liver,[2]; [4],0.138 % Dose
same,% Dose in Skeleton,[2]; [4],50 % Dose
same,Bone/Blood,[2]; [4],562
same,Bone/Muscle,[2]; [4],619
O=P(O)(O)CN(CCN(CP(=O)(O)O)CP(=O)(O)O)CCN(CP(=O)(O)O)CP(=O)(O)O.[175Yb+3] [Example 10],% Dose in Blood,[2]; [4],0.116 % Dose
same,% Dose in Liver,[2]; [4],0.112 % Dose
same,% Dose in Skeleton,[2]; [4],25 % Dose
same,Bone/Blood,[2]; [4],179
same,Bone/Muscle,[2]; [4],366
O=P(O)(O)CN(CCO)CCN(CP(=O)(O)O)CP(=O)(O)O.[175Yb+3] [Example 11],% Dose in Blood,[2]; [4],0.231 % Dose
same,% Dose in Liver,[2]; [4],0.214 % Dose
same,% Dose in Skeleton,[2]; [4],56 % Dose
same,Bone/Blood,[2]; [4],190
same,Bone/Muscle,[2]; [4],572
O=P(O)(O)CN(CP(=O)(O)O)CP(=O)(O)O.[175Yb+3] [Example 13],% Dose in Blood,[2]; [4],0.204 % Dose
same,% Dose in Liver,[2]; [4],0.236 % Dose
same,% Dose in Skeleton,[2]; [4],63 % Dose
same,Bone/Blood,[2]; [4],256
same,Bone/Muscle,[2]; [4],876
O=P(O)(O)CN(CCN(CP(=O)(O)O)CP(=O)(O)O)CP(=O)(O)O.[177Lu+3] [Example 14],% Dose in Blood,[2]; [5],0.10 % Dose
same,% Dose in Kidneys,[2]; [5],0.28 % Dose
same,% Dose in Liver,[2]; [5],0.48 % Dose
same,% Dose in Muscle,[2]; [5],0.44 % Dose
same,% Dose in Skeleton,[2]; [5],51 % Dose
same,Bone/Blood,[2]; [5],500
same,Bone/Muscle,[2]; [5],1380
O=P(O)(O)CN(CCO)CCN(CP(=O)(O)O)CP(=O)(O)O.[177Lu+3] [Example 15],% Dose in Blood,[2]; [5],0.17 % Dose
same,% Dose in Kidneys,[2]; [5],0.30 % Dose
same,% Dose in Liver,[2]; [5],1.9 % Dose
same,% Dose in Muscle,[2]; [5],0.56 % Dose
same,% Dose in Skeleton,[2]; [5],58 % Dose
same,Bone/Blood,[2]; [5],370
same,Bone/Muscle,[2]; [5],570
O=P(O)(O)CN(CCN(CP(=O)(O)O)CP(=O)(O)O)CP(=O)(O)O.[166Ho+3] [Example 16],% Dose in Blood,[2]; [5],0.03 % Dose
same,% Dose in Kidneys,[2]; [5],0.26 % Dose
same,% Dose in Liver,[2]; [5],0.05 % Dose
same,% Dose in Muscle,[2]; [5],0.10 % Dose
same,% Dose in Skeleton,[2]; [5],48 % Dose
same,Bone/Blood,[2]; [5],1114
same,Bone/Muscle,[2]; [5],2292
same,additional survival,tumor,9 months
same,survival compared with usual expected life,tumor,greater than the usual expected life of a dog with osteosarcoma
O=P(O)(O)CN(CCN(CP(=O)(O)O)CP(=O)(O)O)CP(=O)(O)O.[159Gd+3] [Example 19],% Dose in Blood,[2]; [6],0.15 % Dose
same,% Dose in Kidneys,[2]; [6],0.33 % Dose
same,% Dose in Liver,[2]; [6],0.25 % Dose
same,% Dose in Muscle,[2]; [6],0.56 % Dose
same,% Dose in Skeleton,[2]; [6],57 % Dose
same,Bone/Blood,[2]; [6],305
same,Bone/Muscle,[2]; [6],577
O=P(O)(O)CN(CCO)CCN(CP(=O)(O)O)CP(=O)(O)O.[159Gd+3] [Example 20],% Dose in Blood,[2]; [6],0.14 % Dose
same,% Dose in Kidneys,[2]; [6],0.58 % Dose
same,% Dose in Liver,[2]; [6],0.57 % Dose
same,% Dose in Muscle,[2]; [6],0.76 % Dose
same,% Dose in Skeleton,[2]; [6],60 % Dose
same,Bone/Blood,[2]; [6],335
same,Bone/Muscle,[2]; [6],548
CN(CCN(CP(=O)(O)O)CP(=O)(O)O)CP(=O)(O)O.[166Ho+3] [Example 29],% Dose in Blood,[2]; [7],0.12 % Dose
same,% Dose in Kidney,[2]; [7],0.30 % Dose
same,% Dose in Liver,[2]; [7],0.14 % Dose
same,% Dose in Muscle,[2]; [7],0.34 % Dose
same,% Dose in Skeleton,[2]; [7],68 % Dose
same,% Dose in Spleen,[2]; [7],0.01 % Dose
same,Bone/Blood,[2]; [7],470
same,Bone/Muscle,[2]; [7],1133
CC(C)N(CCN(CP(=O)(O)O)CP(=O)(O)O)CP(=O)(O)O.[166Ho+3] [Example 31],% Dose in Blood,[2]; [7],0.22 % Dose
same,% Dose in Kidney,[2]; [7],0.44 % Dose
same,% Dose in Liver,[2]; [7],0.28 % Dose
same,% Dose in Muscle,[2]; [7],0.68 % Dose
same,% Dose in Skeleton,[2]; [7],65 % Dose
same,% Dose in Spleen,[2]; [7],0.01 % Dose
same,Bone/Blood,[2]; [7],245
same,Bone/Muscle,[2]; [7],520
O=P(O)(O)CN(CCN(CP(=O)(O)O)CP(=O)(O)O)Cc1ccccc1.[166Ho+3] [Example 33],% Dose in Blood,[2]; [7],0.09 % Dose
same,% Dose in Kidney,[2]; [7],0.34 % Dose
same,% Dose in Liver,[2]; [7],0.13 % Dose
same,% Dose in Muscle,[2]; [7],0.31 % Dose
same,% Dose in Skeleton,[2]; [7],65 % Dose
same,% Dose in Spleen,[2]; [7],0.01 % Dose
same,Bone/Blood,[2]; [7],542
same,Bone/Muscle,[2]; [7],1093
"O=P(O)(O)C(O)P(=O)(O)O.[166Ho+3] [H0-166 HDP, reference compound]",% Dose In Blood,[2]; [8],0.04 % Dose
same,% Dose In Bone,[2]; [8],0.2 % Dose
same,% Dose In Liver,[2]; [8],2 % Dose
same,Bone/Blood,"[2]; Ho-166, two hours, comparative",4
same,Bone/Muscle,"[2]; Ho-166, two hours, comparative",4
"CC(O)(P(=O)(O)O)P(=O)(O)O.[166Ho+3] [Ho-166 HEDP, reference compound]",% Dose In Blood,[2]; [8],10.1 % Dose
same,% Dose In Bone,[2]; [8],25 % Dose
same,% Dose In Liver,[2]; [8],1.8 % Dose
same,Bone/Blood,"[2]; Ho-166, two hours, comparative",2
same,Bone/Muscle,"[2]; Ho-166, two hours, comparative",17
"O=P(O)(O)NP(=O)(O)O.[166Ho+3] [Ho-166 IDP, reference compound]",% Dose In Blood,[2]; [8],0.28 % Dose
same,% Dose In Bone,[2]; [8],2 % Dose
same,% Dose In Liver,[2]; [8],65 % Dose
same,Bone/Blood,"[2]; Ho-166, two hours, comparative",6
same,Bone/Muscle,"[2]; Ho-166, two hours, comparative",17
"O=P(O)(O)CP(=O)(O)O.[166Ho+3] [Ho-166 MDP, reference compound]",% Dose In Blood,[2]; [8],1.5 % Dose
same,% Dose In Bone,[2]; [8],1 % Dose
same,% Dose In Liver,[2]; [8],64 % Dose
same,Bone/Blood,"[2]; Ho-166, two hours, comparative",0.5
same,Bone/Muscle,"[2]; Ho-166, two hours, comparative",6
"O=P(O)(O)OP(=O)(O)O.[166Ho+3] [Ho-166 PYP, reference compound]",% Dose In Blood,[2]; [8],0.63 % Dose
same,% Dose In Bone,[2]; [8],3 % Dose
same,% Dose In Liver,[2]; [8],67 % Dose
same,Bone/Blood,"[2]; Ho-166, two hours, comparative",4
same,Bone/Muscle,"[2]; Ho-166, two hours, comparative",13
"CC(O)(P(=O)(O)O)P(=O)(O)O.[153Sm+3] [Sm-153 HEDP, reference compound]",% Dose In Blood,[2]; [9],13 % Dose
same,% Dose In Bone,[2]; [9],21 % Dose
same,% Dose In Liver,[2]; [9],3.5 % Dose
same,Bone/Blood,"[2]; Sm-153, two hours, comparative",1
same,Bone/Muscle,"[2]; Sm-153, two hours, comparative",11
"O=P(O)(O)NP(=O)(O)O.[153Sm+3] [Sm-153 IDP, reference compound]",% Dose In Blood,[2]; [9],0.04 % Dose
same,% Dose In Bone,[2]; [9],0.6 % Dose
same,% Dose In Liver,[2]; [9],36 % Dose
same,Bone/Blood,"[2]; Sm-153, two hours, comparative",11
same,Bone/Muscle,"[2]; Sm-153, two hours, comparative",8
"O=P(O)(O)CP(=O)(O)O.[153Sm+3] [Sm-153 MDP, reference compound]",% Dose In Blood,[2]; [9],0.23 % Dose
same,% Dose In Bone,[2]; [9],2 % Dose
same,% Dose In Liver,[2]; [9],85 % Dose
same,Bone/Blood,"[2]; Sm-153, two hours, comparative",9
same,Bone/Muscle,"[2]; Sm-153, two hours, comparative",7
"O=P(O)(O)OP(=O)(O)O.[153Sm+3] [Sm-153 PYP, reference compound]",% Dose In Blood,[2]; [9],0.23 % Dose
same,% Dose In Bone,[2]; [9],2 % Dose
same,% Dose In Liver,[2]; [9],73 % Dose
same,Bone/Blood,"[2]; Sm-153, two hours, comparative",7
same,Bone/Muscle,"[2]; Sm-153, two hours, comparative",15
